Laboratory results: BindingDB's records for doi:10.1021/acs.jmedchem.9b00881 (University of Auckland, 2020)

Legend:
[1] = Inhibition of perforin (unknown origin) assessed as reduction in perforin-mediated cell lysis in human Jurkat T cells incubated for 30 mins by 51Cr release based gamma counting method
[2] = Inhibition of perforin in human KHYG-1 cells pre-treated with compound for 20 mins assessed as reduction in KHYG-1 cells-mediated cell lysis of human K562 cells measured after 4 hrs by 51Cr release based gamma counting method

Compound	IC50 [1]	IC50 [2]
COc1ncc(-c2ccc(-c3cnc4c(c3)CN(C)C4=O)s2)cc1NS(=O)(=O)c1ccccc1C(F)(F)F	0.78 µM	2.21 µM
O=C1NCc2ncc(-c3ccc(-c4cncc(NS(=O)(=O)c5ccc(F)cc5F)c4)s3)cc21	> 20 µM	6.8 µM
O=C1c2ccc(-c3ccc(-c4cncc(NS(=O)(=O)c5ccc(F)cc5F)c4)s3)cc2CN1CCCO	> 20 µM	–
O=C1c2ccc(-c3ccc(-c4cncc(NS(=O)(=O)c5ccc(F)cc5F)c4)s3)cc2CN1CC(O)CO (configuration not stated)	14.2 µM	–
O=C1c2ccc(-c3ccc(-c4cncc(NS(=O)(=O)c5ccc(F)cc5F)c4)s3)cc2CN1CCN1CCCC1	> 20 µM	–
O=C1c2ccc(-c3ccc(-c4cncc(NS(=O)(=O)c5ccc(F)cc5F)c4)s3)cc2CN1CCN1CCCCC1	> 20 µM	–
O=C1NCc2cc(-c3ccc(-c4cncc(NS(=O)(=O)c5ccc(F)cc5F)c4)s3)cnc21	5.73 µM	–
CN1Cc2cc(-c3ccc(-c4cncc(NS(=O)(=O)c5cccc(C(F)(F)F)c5)c4)s3)cnc2C1=O	> 20 µM	3.4 µM
CN1Cc2cc(-c3ccc(-c4cncc(NS(=O)(=O)c5ccc(F)cc5F)c4)s3)cnc2C1=O	4.3 µM	7.5 µM
COc1ncc(-c2ccc(-c3cnc4c(c3)CN(C)C4=O)s2)cc1NS(=O)(=O)c1ccccc1[N+](=O)[O-]	2.3 µM	1.6 µM
CN1Cc2cc(-c3ccc(-c4cncc(NS(=O)(=O)c5ccccc5C(F)(F)F)c4)s3)cnc2C1=O	1.38 µM	3.3 µM
COc1ncc(-c2ccc(-c3cnc4c(c3)CN(C)C4=O)s2)cc1NS(=O)(=O)c1ccc(F)cc1F	3.34 µM	4.43 µM
CN1CCN(CCN2Cc3cc(-c4ccc(-c5cncc(NS(=O)(=O)c6ccc(F)cc6F)c5)s4)ccc3C2=O)CC1	> 20 µM	–
CN(C)CCN1Cc2cc(-c3ccc(-c4cncc(NS(=O)(=O)c5ccc(F)cc5F)c4)s3)ccc2C1=O	> 20 µM	–
O=C1c2ccc(-c3ccc(-c4cncc(NS(=O)(=O)c5ccc(F)cc5F)c4)s3)cc2CN1CCN1CCOCC1	17 µM	–
